Assay: Cytotoxicity assay (MTT)
Assay type: cell-based, human
Conditions: for IC50: 5 days
Method: Compounds 1−5 were dissolved as described in the previous section. The cytotoxicity assay was initially performed against the cell lines L929 (mouse fibroblasts), as well as KB 3.1 (human papillomavirus-related endocervical adenocarcinoma), as described previously. A detailed protocol, as well as sources of the cell lines, is given in the Supporting Information.
After incubating the cell lines with a serial dilution of the test compounds (final range: 37 to 0.6 × 10^−3 µg/mL) for five days, the cells were dyed using 3-(4,5-dimethyl-2-thiazolyl)-2,5-diphenyl-2H-tetrazolium bromide (MTT), which is only converted to its purple formazan derivative by living cells. Then, the intensity of the purple derivative in relation to cells without additive (set to 100% viability) for each concentration of a test compound was quantified. For this, the absorption at 595 nm was measured using a microplate reader to calculate the percentage of cell viability. From this, the half-maximum inhibitory concentration (IC50, in µM) was calculated.
If an inhibition of cell viability with an IC50 < 50 µM was observed, further cell lines were subjected to the test compounds: PC-3 (human prostate adenocarcinoma), SK-OV-3 (human ovary adenocarcinoma), MCF-7 (human breast adenocarcinoma), A431 (human squamous carcinoma) and A549 (human lung carcinoma).
Protocol: Cytotoxicity Assay
The ass ay w as co nducted i n 9 6-well flat-bottom mi crotiter plates using the parameters summarised i n Tabl e S 2 and as described in [S2].
Cell lines L929 and KB 3.1 were incubated at 37 °C under 10 % CO2 in Gibco™ DMEM medium (Thermo Fisher Scientific, Waltham, MA, USA) supplemented with 10 % FBS. A microtiter plate was filled with 120 µL of this suspension (50,000/mL) in each well.
Seperately, another microtiter plate was filled with 100 µL of growth medium in each well. Then, 50 µL of the test compound sol utions (1 mg/mL) were given to wells of the first column in two replicates (one compound per row). C ell s wi thout addi ti ves, Me O H, and MeOH: DMSO 9+1 were used as negative controls. Starting from the first column, 50 µL of the solutions were gradually transferred to the ne xt col umn, the conte nts thoroughl y mi xed, and 50 µ L transferred to the following column. This created a serial dilution of the test compounds r anging from 333 µg/mL to 1.9 ×10−3 µg/mL. The remai ni ng 50 µL after column twelve were discarded. From this microtiter plate, 60 µL of the sol utions from 111 µg/ mL to 1.9×10−3 µg/mL were given to the first plate containing 120 µL of the cel l suspens i ons (i.e. the hi ghest concentrati on 333 µg/mL was not used). T his resulted i n fi nal compound concent rati ons rangi ng from […]
After 5 days of incubation under the aforeme ntioned i ncubati on condi ti ons, the half maximum inhibitory concentrati ons (IC 50) were determined using a colorimetric tetrazolium dye MTT assay [S3].
For this, 20 µL of a 5 mg/mL solution of 3-( 4 ,5 -dimethyl-2-thi azo l yl)-2 ,5 -di phenyl -2H-tetrazolium bromide (MTT) w ere added to each well and incubated for two hours at 37 °C. Then, the microtiter plate was centrifuged (3,000 r p m, 5 mi n) and the supernat ant remo ved by ho l di ng the pl ate upsi de-do wn and gentle shaking. Afterwards, the wells were washed using 100 µL of phosph ate buffered saline (PBS).
The plate was again centrifuged and the supernatant removed as described before. Then, 100 µL of an isopropanol:HCl solution (1L i sopropanol+4 mL HCl 37 % w/v) were added to the wells. After i ncubati ng fo r 10 mi n at ambi ent te mperature, the a bso r pti o n of the well s at 595 nm was measured wi th an I nfi ni te ® 200 Pro microplate reader (TECAN, Männedorf, Schweiz).
The absorption values of the cells without additives were averaged and set to 100 % cell viability.
Then, t he me ans of absorption of the two compound replicates were set in relation to the blank media.
These percentage values were plotted a gainst the concentration range (37 µg/mL to 0.6×10 −3 µg/mL). […]

[1] = A431 human squamous carcinoma cells, A431 human squamous AC
[2] = A549 human lung carcinoma cells, A549 human lung carcinoma
[3] = MCF-7 human breast adenocarcinoma cells, MCF-7 human breast AC
[4] = PC-3 human prostate adenocarcinoma cells, PC-3 human prostate AC
[5] = SK-OV-3 human ovary adenocarcinoma cells, SK-OV-3 human ovary AC

Row | Structure (SMILES) | IC50 at 5 days [1] [µM] | IC50 at 5 days [2] [µM] | IC50 at 5 days [3] [µM] | IC50 at 5 days [4] [µM] | IC50 at 5 days [5] [µM] | IC50 (A431 human squamous AC) [µM] | IC50 (A549 human lung carcinoma) [µM] | IC50 (MCF-7 human breast AC) [µM] | IC50 (PC-3 human prostate AC) [µM] | IC50 (SK-OV-3 human ovary AC) [µM]
1 | O=C1CCC(=O)c2c1c(O)cc1c2-c2ccc(O)c3c(O)ccc-1c23 [Compound 5, truncatone C] | 16.3 | 27.1 | 7.8 | 25.6 | 33.1 | – | – | – | – | –
2 | COc1cccc2c3c(ccc12)-c1ccc(O)c2c(O)ccc-3c12 [Compound 2, viridistratin B] | 1.1 | 1.4 | 5.1 | 9.9 | 7.3 | – | – | – | – | –
3 | O=C1C[C@H]2C(=C3CCC(=O)c4c(O)ccc2c43)c2cccc(O)c21 [Compound 4, truncatone A] | – | – | – | – | – | 5.7 | 17 | 8.8 | 44 | 66
4 | Oc1cccc2c3c(ccc12)-c1ccc(O)c2c(O)ccc-3c12 [Compound 1, viridistratin A] | 8.7 | 20 | 9.7 | 23.7 | 56.7 | – | – | – | – | –

— PMC7277860, “Viridistratins A−C, Antimicrobial and Cytotoxic Benzo[j]fluoranthenes from Stromata of Annulohypoxylon viridistratum (Hypoxylaceae, Ascomycota)” (Biomolecules, 2020)
